# According to paper PMC12102759 (Protein Science : A Publication of the Protein Society, 2025):
# Where two headings read alike, the source gives them in different places.
# System: PABPC1 PABC
# Assay type: binding, human
# Conditions: DMS-BM library, bait PABPC1 PABC, row aa = residue at this position; for DMS-derived PSSM value (averaged), position R12 / DMS-derived PSSM value, position R14 / DMS-derived PSSM value, position R12: R = wild type
# [1] = prey ATXN2, TLNPNAKEFNPRSF(averaged) over the two overlapping peptides
# [2] = prey ATXN2, peptide KSTLNPNAKEFNPRSF, F = wild type
# [3] = prey ATXN2, peptide KSTLNPNAKEFNPRSF, S = wild type
# [4] = prey ATXN2, peptide KSTLNPNAKEFNPRSF, P = wild type
# [5] = prey ATXN2, peptide TLNPNAKEFNPRSFSQ, S = wild type
# [6] = prey ATXN2, peptide KSTLNPNAKEFNPRSF, A = wild type
# [7] = prey ATXN2, peptide TLNPNAKEFNPRSFSQ, N = wild type
# [8] = prey ATXN2, TLNPNAKEFNPRSF(averaged) over the two overlapping peptides, L = wild type
# [9] = prey ATXN2, TLNPNAKEFNPRSF(averaged) over the two overlapping peptides, N = wild type
# [10] = prey ATXN2, peptide TLNPNAKEFNPRSFSQ, P = wild type
# [11] = prey ATXN2, peptide KSTLNPNAKEFNPRSF
# [12] = prey ATXN2, peptide TLNPNAKEFNPRSFSQ
# [13] = prey ATXN2, TLNPNAKEFNPRSF(averaged) over the two overlapping peptides, P = wild type
# [14] = prey ATXN2, peptide TLNPNAKEFNPRSFSQ, A = wild type
substance,measurement,setting,value
KSTLNPNAKEFNPRSF L4S (KSTSNPNAKEFNPRSF),"DMS-derived PSSM value, position L4","prey ATXN2, peptide KSTLNPNAKEFNPRSF, L = wild type",0
TLNPNAKEFNPRSFSQ E8Y (TLNPNAKYFNPRSFSQ),"DMS-derived PSSM value, position E8","prey ATXN2, peptide TLNPNAKEFNPRSFSQ, E = wild type",0.04993
TLNPNAKEFNPRSF(averaged) R12K (TLNPNAKEFNPKSF),"DMS-derived PSSM value (averaged), position R12",[1],0.01002
TLNPNAKEFNPRSF(averaged) K7H (TLNPNAHEFNPRSF),"DMS-derived PSSM value (averaged), position K7","prey ATXN2, TLNPNAKEFNPRSF(averaged) over the two overlapping peptides, K = wild type",0.03669
KSTLNPNAKEFNPRSF F11G (KSTLNPNAKEGNPRSF),"DMS-derived PSSM value, position F11",[2],0
KSTLNPNAKEFNPRSF S15E (KSTLNPNAKEFNPREF),"DMS-derived PSSM value, position S15",[3],0.02092
KSTLNPNAKEFNPRSF P6A (KSTLNANAKEFNPRSF),"DMS-derived PSSM value, position P6",[4],0
TLNPNAKEFNPRSFSQ S15N (TLNPNAKEFNPRSFNQ),"DMS-derived PSSM value, position S15",[5],0.007151
TLNPNAKEFNPRSFSQ S13V (TLNPNAKEFNPRVFSQ),"DMS-derived PSSM value, position S13",[5],0.02255
KSTLNPNAKEFNPRSF F16R (KSTLNPNAKEFNPRSR),"DMS-derived PSSM value, position F16",[2],0
KSTLNPNAKEFNPRSF P13I (KSTLNPNAKEFNIRSF),"DMS-derived PSSM value, position P13",[4],0.01276
KSTLNPNAKEFNPRSF A8W (KSTLNPNWKEFNPRSF),"DMS-derived PSSM value, position A8",[6],0
KSTLNPNAKEFNPRSF P6V (KSTLNVNAKEFNPRSF),"DMS-derived PSSM value, position P6",[4],0.3743
TLNPNAKEFNPRSFSQ N5E (TLNPEAKEFNPRSFSQ),"DMS-derived PSSM value, position N5",[7],3.906e-5
KSTLNPNAKEFNPRSF S15M (KSTLNPNAKEFNPRMF),"DMS-derived PSSM value, position S15",[3],0.01897
KSTLNPNAKEFNPRSF S15N (KSTLNPNAKEFNPRNF),"DMS-derived PSSM value, position S15",[3],0.1002
TLNPNAKEFNPRSF(averaged) L2G (TGNPNAKEFNPRSF),"DMS-derived PSSM value (averaged), position L2",[8],0
KSTLNPNAKEFNPRSF P13V (KSTLNPNAKEFNVRSF),"DMS-derived PSSM value, position P13",[4],0.767
TLNPNAKEFNPRSF(averaged) N5E (TLNPEAKEFNPRSF),"DMS-derived PSSM value (averaged), position N5",[9],0.01598
TLNPNAKEFNPRSFSQ N5M (TLNPMAKEFNPRSFSQ),"DMS-derived PSSM value, position N5",[7],0.7094
KSTLNPNAKEFNPRSF N12Q (KSTLNPNAKEFQPRSF),"DMS-derived PSSM value, position N12","prey ATXN2, peptide KSTLNPNAKEFNPRSF, N = wild type",0.02863
TLNPNAKEFNPRSFSQ T1S (SLNPNAKEFNPRSFSQ),"DMS-derived PSSM value, position T1","prey ATXN2, peptide TLNPNAKEFNPRSFSQ, T = wild type",0.004758
TLNPNAKEFNPRSF(averaged) N10L (TLNPNAKEFLPRSF),"DMS-derived PSSM value (averaged), position N10",[9],0.09868
TLNPNAKEFNPRSFSQ N10P (TLNPNAKEFPPRSFSQ),"DMS-derived PSSM value, position N10",[7],0.06147
TLNPNAKEFNPRSFSQ P4S (TLNSNAKEFNPRSFSQ),"DMS-derived PSSM value, position P4",[10],0.01574
KSTLNPNAKEFNPRSF R14T (KSTLNPNAKEFNPTSF),"DMS-derived PSSM value, position R14",[11],0.1913
KSTLNPNAKEFNPRSF F11R (KSTLNPNAKERNPRSF),"DMS-derived PSSM value, position F11",[2],0
TLNPNAKEFNPRSFSQ R12L (TLNPNAKEFNPLSFSQ),"DMS-derived PSSM value, position R12",[12],0.01731
TLNPNAKEFNPRSF(averaged) L2S (TSNPNAKEFNPRSF),"DMS-derived PSSM value (averaged), position L2",[8],0
KSTLNPNAKEFNPRSF R14D (KSTLNPNAKEFNPDSF),"DMS-derived PSSM value, position R14",[11],0
TLNPNAKEFNPRSF(averaged) A6I (TLNPNIKEFNPRSF),"DMS-derived PSSM value (averaged), position A6","prey ATXN2, TLNPNAKEFNPRSF(averaged) over the two overlapping peptides, A = wild type",0.01774
TLNPNAKEFNPRSF(averaged) N3E (TLEPNAKEFNPRSF),"DMS-derived PSSM value (averaged), position N3",[9],0
TLNPNAKEFNPRSFSQ P4R (TLNRNAKEFNPRSFSQ),"DMS-derived PSSM value, position P4",[10],0
TLNPNAKEFNPRSFSQ P11D (TLNPNAKEFNDRSFSQ),"DMS-derived PSSM value, position P11",[10],0.005508
TLNPNAKEFNPRSF(averaged) P11I (TLNPNAKEFNIRSF),"DMS-derived PSSM value (averaged), position P11",[13],0.006686
KSTLNPNAKEFNPRSF P6I (KSTLNINAKEFNPRSF),"DMS-derived PSSM value, position P6",[4],0.3229
TLNPNAKEFNPRSF(averaged) N3A (TLAPNAKEFNPRSF),"DMS-derived PSSM value (averaged), position N3",[9],0
TLNPNAKEFNPRSFSQ P11S (TLNPNAKEFNSRSFSQ),"DMS-derived PSSM value, position P11",[10],0.03014
TLNPNAKEFNPRSF(averaged) R12Q (TLNPNAKEFNPQSF),"DMS-derived PSSM value (averaged), position R12",[1],0.05602
KSTLNPNAKEFNPRSF E10T (KSTLNPNAKTFNPRSF),"DMS-derived PSSM value, position E10","prey ATXN2, peptide KSTLNPNAKEFNPRSF, E = wild type",0.1693
KSTLNPNAKEFNPRSF A8M (KSTLNPNMKEFNPRSF),"DMS-derived PSSM value, position A8",[6],0
KSTLNPNAKEFNPRSF S2L (KLTLNPNAKEFNPRSF),"DMS-derived PSSM value, position S2",[3],0.006151
TLNPNAKEFNPRSF(averaged) S13G (TLNPNAKEFNPRGF),"DMS-derived PSSM value (averaged), position S13","prey ATXN2, TLNPNAKEFNPRSF(averaged) over the two overlapping peptides, S = wild type",0.08376
TLNPNAKEFNPRSFSQ A6L (TLNPNLKEFNPRSFSQ),"DMS-derived PSSM value, position A6",[14],0
TLNPNAKEFNPRSF(averaged) P4I (TLNINAKEFNPRSF),"DMS-derived PSSM value (averaged), position P4",[13],0.2825
TLNPNAKEFNPRSF(averaged) N10A (TLNPNAKEFAPRSF),"DMS-derived PSSM value (averaged), position N10",[9],0.08276
TLNPNAKEFNPRSFSQ R12E (TLNPNAKEFNPESFSQ),"DMS-derived PSSM value, position R12",[12],0.01629
TLNPNAKEFNPRSFSQ N10V (TLNPNAKEFVPRSFSQ),"DMS-derived PSSM value, position N10",[7],0.0007642
TLNPNAKEFNPRSFSQ A6Q (TLNPNQKEFNPRSFSQ),"DMS-derived PSSM value, position A6",[14],0
TLNPNAKEFNPRSF(averaged) E8M (TLNPNAKMFNPRSF),"DMS-derived PSSM value (averaged), position E8","prey ATXN2, TLNPNAKEFNPRSF(averaged) over the two overlapping peptides, E = wild type",0.02105
TLNPNAKEFNPRSFSQ F14V (TLNPNAKEFNPRSVSQ),"DMS-derived PSSM value, position F14","prey ATXN2, peptide TLNPNAKEFNPRSFSQ, F = wild type",0.06499
KSTLNPNAKEFNPRSF R14I (KSTLNPNAKEFNPISF),"DMS-derived PSSM value, position R14",[11],0.04837
KSTLNPNAKEFNPRSF F16P (KSTLNPNAKEFNPRSP),"DMS-derived PSSM value, position F16",[2],0.0009324
KSTLNPNAKEFNPRSF T3F (KSFLNPNAKEFNPRSF),"DMS-derived PSSM value, position T3","prey ATXN2, peptide KSTLNPNAKEFNPRSF, T = wild type",0.07157
TLNPNAKEFNPRSF(averaged) P4S (TLNSNAKEFNPRSF),"DMS-derived PSSM value (averaged), position P4",[13],0.01466
KSTLNPNAKEFNPRSF P6G (KSTLNGNAKEFNPRSF),"DMS-derived PSSM value, position P6",[4],0.01358
TLNPNAKEFNPRSFSQ K7F (TLNPNAFEFNPRSFSQ),"DMS-derived PSSM value, position K7","prey ATXN2, peptide TLNPNAKEFNPRSFSQ, K = wild type",0.058
TLNPNAKEFNPRSF(averaged) N5D (TLNPDAKEFNPRSF),"DMS-derived PSSM value (averaged), position N5",[9],0.03885
